According to the NIST ThermoML archive (doi:10.1021/je900437b):

Assay: xn = mol fraction of the nth substance listed
Details: 101 kPa, Liquid; for speed of sound: Sing-around technique in a fixed-path interferometer; for mass density: Vibrating tube method

OCCN(CCO)CCO [triethanolamine] + NCCO
Details | mass density [kg/m3] | speed of sound [m/s]
298.15 K, x2 = 0 | 1120.82 | 1610.5
298.15 K, x2 = 0.1159 | 1116.38 | 1625.2
298.15 K, x2 = 0.2165 | 1111.37 | 1637.8
298.15 K, x2 = 0.3017 | 1106.52 | 1648.4
298.15 K, x2 = 0.3788 | 1101.52 | 1658.1
298.15 K, x2 = 0.4492 | 1096.35 | 1666.8
298.15 K, x2 = 0.5121 | 1091.14 | 1674.3
298.15 K, x2 = 0.6192 | 1080.56 | 1686.4
298.15 K, x2 = 0.7099 | 1069.5 | 1695.9
298.15 K, x2 = 0.7849 | 1058.49 | 1702.7
298.15 K, x2 = 0.8509 | 1046.99 | 1708
298.15 K, x2 = 0.907 | 1035.53 | 1712.1
298.15 K, x2 = 0.9561 | 1023.91 | 1715.6
303.15 K, x2 = 0 | 1118.06 | 1600.5
303.15 K, x2 = 0.1159 | 1113.44 | 1615.2
303.15 K, x2 = 0.2165 | 1108.35 | 1628
303.15 K, x2 = 0.3017 | 1103.4 | 1638.7
303.15 K, x2 = 0.3788 | 1098.32 | 1648.3
303.15 K, x2 = 0.4492 | 1093.05 | 1656.7
303.15 K, x2 = 0.5121 | 1087.76 | 1663.9
303.15 K, x2 = 0.6192 | 1077.07 | 1675.3
303.15 K, x2 = 0.7099 | 1065.88 | 1683.4
303.15 K, x2 = 0.7849 | 1054.74 | 1689.1
303.15 K, x2 = 0.8509 | 1043.15 | 1693.5
303.15 K, x2 = 0.907 | 1031.61 | 1697.1
303.15 K, x2 = 0.9561 | 1019.93 | 1700.3
308.15 K, x2 = 0 | 1115.26 | 1595.5
308.15 K, x2 = 0.1159 | 1110.42 | 1610
308.15 K, x2 = 0.2165 | 1105.26 | 1622.1
308.15 K, x2 = 0.3017 | 1100.25 | 1632
308.15 K, x2 = 0.3788 | 1095.08 | 1640.8
308.15 K, x2 = 0.4492 | 1089.75 | 1648.6
308.15 K, x2 = 0.5121 | 1084.39 | 1655.1
308.15 K, x2 = 0.6192 | 1073.56 | 1665
308.15 K, x2 = 0.7099 | 1062.26 | 1671.8
308.15 K, x2 = 0.7849 | 1051.01 | 1676.7
308.15 K, x2 = 0.8509 | 1039.31 | 1680.6
308.15 K, x2 = 0.907 | 1027.72 | 1683.5
308.15 K, x2 = 0.9561 | 1015.99 | 1685.9
313.15 K, x2 = 0 | 1112.4 | 1587
313.15 K, x2 = 0.1159 | 1107.47 | 1601.8
313.15 K, x2 = 0.2165 | 1102.16 | 1613.9
313.15 K, x2 = 0.3017 | 1097.05 | 1623.6
313.15 K, x2 = 0.3788 | 1091.8 | 1631.9
313.15 K, x2 = 0.4492 | 1086.4 | 1639.2
313.15 K, x2 = 0.5121 | 1080.99 | 1645.2
313.15 K, x2 = 0.6192 | 1070.01 | 1654.6
313.15 K, x2 = 0.7099 | 1058.62 | 1661.1
313.15 K, x2 = 0.7849 | 1047.27 | 1665.1
313.15 K, x2 = 0.8509 | 1035.49 | 1667.6
313.15 K, x2 = 0.907 | 1023.83 | 1669
313.15 K, x2 = 0.9561 | 1012.03 | 1670
318.15 K, x2 = 0 | 1109.6 | 1578.8
318.15 K, x2 = 0.1159 | 1104.53 | 1593.8
318.15 K, x2 = 0.2165 | 1099.15 | 1605.9
318.15 K, x2 = 0.3017 | 1093.95 | 1614.8
318.15 K, x2 = 0.3788 | 1088.58 | 1622.6
318.15 K, x2 = 0.4492 | 1083.06 | 1629.4
318.15 K, x2 = 0.5121 | 1077.57 | 1635.1
318.15 K, x2 = 0.6192 | 1066.47 | 1643.9
318.15 K, x2 = 0.7099 | 1054.94 | 1649.5
318.15 K, x2 = 0.7849 | 1043.54 | 1652.8
318.15 K, x2 = 0.8509 | 1031.7 | 1654.6
318.15 K, x2 = 0.907 | 1019.92 | 1655.3
318.15 K, x2 = 0.9561 | 1008.07 | 1655.3
323.15 K, x2 = 0 | 1106.78 | 1570.6
323.15 K, x2 = 0.1159 | 1101.56 | 1585.9
323.15 K, x2 = 0.2165 | 1096.03 | 1597.2
323.15 K, x2 = 0.3017 | 1090.73 | 1605.9
323.15 K, x2 = 0.3788 | 1085.31 | 1613.5
323.15 K, x2 = 0.4492 | 1079.76 | 1620.1
323.15 K, x2 = 0.5121 | 1074.18 | 1625.6
323.15 K, x2 = 0.6192 | 1062.92 | 1633.2
323.15 K, x2 = 0.7099 | 1051.26 | 1637.5
323.15 K, x2 = 0.7849 | 1039.74 | 1639.8
323.15 K, x2 = 0.8509 | 1027.82 | 1641.3
323.15 K, x2 = 0.907 | 1016 | 1641.8
323.15 K, x2 = 0.9561 | 1004.09 | 1641
